Results reported in US20140045823A1 (Neurocrine Biosciences, Inc., priority 2012, published 2014).

Each molecule was assayed against T1, human GPR119 (Homo sapiens, UniProt Q8TDV5) (assay: AlphaScreen cAMP assay in MIN6 cells stably transfected with human GPR119). Conditions: Min-6/hGPR119 cells, 45 min at room temperature.
T1 construct: expression vector for human GPR119 cDNA (Acc. No. NP_848566); expressed in transfected cells; Min-6/hGPR119
T1 sequence (Q8TDV5 1-335): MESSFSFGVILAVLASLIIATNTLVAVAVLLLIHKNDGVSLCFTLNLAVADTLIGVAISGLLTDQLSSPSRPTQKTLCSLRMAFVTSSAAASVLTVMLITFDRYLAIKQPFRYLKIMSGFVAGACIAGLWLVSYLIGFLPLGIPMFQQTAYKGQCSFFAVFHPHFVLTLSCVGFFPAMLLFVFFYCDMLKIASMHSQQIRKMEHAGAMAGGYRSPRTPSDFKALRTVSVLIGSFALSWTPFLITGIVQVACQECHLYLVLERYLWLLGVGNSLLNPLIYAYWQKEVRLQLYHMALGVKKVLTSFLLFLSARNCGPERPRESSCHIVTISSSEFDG
Type: cell-based
Outline: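 MIN6 cells stably expressing human GPR119, seeded 10000/well and grown 24 h, were exposed to compound in pH 7.4 buffer with 0.5 mM IBMX, 0.1% BSA and 1% DMSO for 45 min at room temperature. Intracellular cAMP then measured by AlphaScreen.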
Work on `CN(CC1CCOC1)C(=O)c1ccc(-c2ncc(C(=O)N(C3CC3)C3CCN(C(=O)OC(C)(C)C)CC3)cn2)c(F)c1` (stereo not shown) [Example 148, 4-[Cyclopropyl-(2-{2-fluoro-4-[methyl-(tetrahydro-furan-3-ylmethyl)-carbamoyl]-phenyl}-pyrimidine-5-carbonyl)-amino]-piperidine-1-carboxylic acid tert-butyl ester] yielded an EC50 of 395 nM. In the case of `CC(C)(C)OC(=O)N1CCC(N(C(=O)c2cnc(-c3ccc(C(=O)NCc4ccccn4)cc3)nc2)C2CC2)CC1` [Example 224, 4-[Cyclopropyl-(2-{4-[(pyridin-2-ylmethyl)-carbamoyl]-phenyl}-pyrimidine-5-carbonyl)-amino]-piperidine-1-carboxylic acid tert-butyl ester], the EC50 is reported as 157 nM. In the case of `COC[C@@H]1CCCN1C(=O)c1ccc(-c2ncc(C(=O)N(C3CC3)C3CCN(C(=O)OC(C)(C)C)CC3)cn2)cc1F` [Example 108, 4-(Cyclopropyl-{2-[3-fluoro-4-(2-methoxymethyl-pyrrolidine-1-carbonyl)-phenyl]-pyrimidine-5-carbonyl}-amino)-piperidine-1-carboxylic acid tert-butyl ester], the EC50 is reported as 312 nM. `COc1ccc(NC(=O)c2ccc(-c3ncc(C(=O)N(C4CC4)C4CCN(C(=O)OC(C)(C)C)CC4)cn3)c(F)c2)cn1` [Example 159, 4-(Cyclopropyl-{2-[2-fluoro-4-(6-methoxy-pyridin-3-ylcarbamoyl)-phenyl]-pyrimidine-5-carbonyl}-amino)-piperidine-1-carboxylic acid tert-butyl ester] was tested, and the EC50 was 303 nM. In the case of `COC[C@H]1CCCN1C(=O)c1ccc(-c2ncc(C(=O)N(C3CC3)C3CCN(C(=O)OC(C)(C)C)CC3)cn2)cc1` [Example 203, 4-(Cyclopropyl-{2-[4-(2-methoxymethyl-pyrrolidine-1-carbonyl)-phenyl]-pyrimidine-5-carbonyl}-amino)-piperidine-1-carboxylic acid tert-butyl ester], the EC50 is reported as 295 nM. In the case of `CN(CC#N)C(=O)c1ccc(-c2ncc(C(=O)N(C3CC3)C3CCN(C(=O)OC(C)(C)C)CC3)cn2)c(F)c1` [Example 140, 4-({2-[4-(Cyanomethyl-methyl-carbamoyl)-2-fluoro-phenyl]-pyrimidine-5-carbonyl}-cyclopropyl-amino)-piperidine-1-carboxylic acid tert-butyl ester], the EC50 is reported as 441 nM. For `Cc1noc(C2CCN(C(=O)c3ccc(-c4ncc(C(=O)N(C5CC5)C5CCN(C(=O)OC(C)(C)C)CC5)cn4)cc3F)C2)n1` (stereo not shown) [Example 104, 4-[Cyclopropyl-(2-{3-fluoro-4-[3-(3-methyl-[1,2,4]oxadiazol-5-yl)-pyrrolidine-1-carbonyl]-phenyl}-pyrimidine-5-carbonyl)-amino]-piperidine-1-carboxylic acid tert-butyl ester], the EC50 was 180 nM. `CO[C@@H]1CCN(C(=O)Cc2ccc(-c3ncc(C(=O)N(C4CC4)C4CCN(C(=O)OC(C)(C)C)CC4)cn3)cc2)C1` [Example 194, 4-[Cyclopropyl-(2-{4-[2-(3-methoxy-pyrrolidin-1-yl)-2-oxo-ethyl]-phenyl}-pyrimidine-5-carbonyl)-amino]-piperidine-1-carboxylic acid tert-butyl ester] gave an EC50 of 325 nM. Molecule `CN(Cc1ccncc1)C(=O)c1ccc(-c2ncc(C(=O)N(C3CC3)C3CCN(C(=O)OC(C)(C)C)CC3)cn2)cc1` [Example 170, 4-(Cyclopropyl-{2-[4-(methyl-pyridin-4-ylmethyl-carbamoyl)-phenyl]-pyrimidine-5-carbonyl}-amino)-piperidine-1-carboxylic acid tert-butyl ester] has an EC50 of 208 nM. Molecule `CN(CCOCC1CC1)C(=O)c1ccc(-c2ncc(C(=O)N(C3CC3)C3CCN(C(=O)OC(C)(C)C)CC3)cn2)cc1F` [Example 124, 4-[Cyclopropyl-(2-{4-[(2-cyclopropylmethoxy-ethyl)-methyl-carbamoyl]-3-fluoro-phenyl}-pyrimidine-5-carbonyl)-amino]-piperidine-1-carboxylic acid tert-butyl ester] has an EC50 of 102 nM. Work on `Cc1ccn(-c2ncc(C(=O)N(C3CC3)C3CCN(C(=O)OC(C)(C)C)CC3)cn2)n1` [Example 96, 4-{Cyclopropyl-[2-(3-methyl-pyrazol-1-yl)-pyrimidine-5-carbonyl]-amino}-piperidine-1-carboxylic acid tert-butyl ester] yielded an EC50 of 192 nM. In the case of `CC(C)(C)OC(=O)N1CCC(N(C(=O)c2cnc(-c3ccc(S(C)(=O)=O)cc3)nc2)C2CC2)CC1` [Example 80, 4-{Cyclopropyl-[2-(4-methanesulfonyl-phenyl)-pyrimidine-5-carbonyl]-amino}-piperidine-1-carboxylic acid tert-butyl ester], the EC50 is reported as 75 nM. Molecule `CNS(=O)(=O)c1ccc(-c2ncc(C(=O)N(C3CC3)C3CCN(C(=O)OC(C)(C)C)CC3)cn2)cc1` [Example 92, 4-{Cyclopropyl-[2-(4-methanesulfamoyl-phenyl)-pyrimidine-5-carbonyl]-amino}-piperidine-1-carboxylic acid tert-butyl ester] has an EC50 of 151 nM. With `CC(C)(C)OC(=O)N1CCC(N(C(=O)c2cnc(-c3ccc(C(=O)Nc4ccc(CO)cc4)cc3)nc2)C2CC2)CC1` [Example 176, 4-(Cyclopropyl-{2-[4-(4-hydroxymethyl-phenylcarbamoyl)-phenyl]-pyrimidine-5-carbonyl}-amino)-piperidine-1-carboxylic acid tert-butyl ester] the EC50 was 346 nM. For `CN(C)C(=O)CNC(=O)c1ccc(-c2ncc(C(=O)N(C3CC3)C3CCN(C(=O)OC(C)(C)C)CC3)cn2)cc1` [Example 200, 4-(Cyclopropyl-{2-[4-(dimethylcarbamoylmethyl-carbamoyl)-phenyl]-pyrimidine-5-carbonyl}-amino)-piperidine-1-carboxylic acid tert-butyl ester], the EC50 was 449 nM. Work on `COC(C)CN(C)C(=O)c1ccc(-c2ncc(C(=O)N(C3CC3)C3CCN(C(=O)OC(C)(C)C)CC3)cn2)cc1F` (stereo not shown) [Example 107, 4-[Cyclopropyl-(2-{3-fluoro-4-[(2-methoxy-propyl)-methyl-carbamoyl]-phenyl}-pyrimidine-5-carbonyl)-amino]-piperidine-1-carboxylic acid tert-butyl ester] yielded an EC50 of 114 nM. Work on `CC(C)OC(=O)N1CCC(N(C(=O)c2cnc(-n3ccnc3)nc2)C2CC2)CC1` [Example 51, 4-[Cyclopropyl-(2-imidazol-1-yl-pyrimidine-5-carbonyl)-amino]-piperidine-1-carboxylic acid isopropyl ester] yielded an EC50 of 140 nM. `CC(C)(C)OC(=O)N1CCC(N(C(=O)c2cnc(-c3ccc(C(=O)Nc4cccc(CO)c4)c(F)c3)nc2)C2CC2)CC1` [Example 110, 4-(Cyclopropyl-{2-[3-fluoro-4-(3-hydroxymethyl-phenylcarbamoyl)-phenyl]-pyrimidine-5-carbonyl}-amino)-piperidine-1-carboxylic acid tert-butyl ester] was tested, and the EC50 was 141 nM. `CC(O)c1cccc(NC(=O)Cc2ccc(-c3ncc(C(=O)N(C4CC4)C4CCN(C(=O)OC(C)(C)C)CC4)cn3)cc2)c1` (stereo not shown) [Example 210, 4-{Cyclopropyl-[2-(4-{[3-(1-hydroxy-ethyl)-phenylcarbamoyl]-methyl}-phenyl)-pyrimidine-5-carbonyl]-amino}-piperidine-1-carboxylic acid tert-butyl ester] was tested, and the EC50 was 593 nM.
